Results as given in US20040082558A1, “Administration of estradiol metabolites for inhibition of drug-induced nephrotoxicity” (priority 2002, published 2004).

How the values were obtained:
Assay type in all cases: in vivo, rat
PAN-nephropathic rats [1] = test: Metabolic cage measurements (24-hour urine, intake, plasma) in PAN-nephropathic rats
Procedure: A total of thirty-five, male Sprague Dawley rats (approximately 290 grams) were used. Rats were housed in the University of Pittsburgh Medical Center animal care facility (temperature, 22° C.; light cycle, 12 hours; relative humidity, 55%). Animals were fed Pro Lab RMH 3000 rodent diet (PMI Nutrition Inc., St Louis, Mo.) and were given water ad libitum. Institutional guidelines for animal welfare were followed, and the University of Pittsburgh Institutional Animal Care and Use Committee approved experimental protocols.
Before initiating treatment, and 3, and 6 and 11 weeks into the treatments, animals were placed in metabolic cages and allowed to acclimatize for two days before conducting the 24-hour measurements of urine volume, food and water intake and urinary sodium, potassium, creatinine, and protein excretion. Tail vein blood samples were also taken for measurement of plasma sodium, potassium, albumin and creatinine. Plasma and urine samples were analyzed for sodium and potassium concentrations using a flame photometer (Model IL-943; Instrumentations Laboratory Inc., Lexington, Ma.) and for creatinine concentrations using a creatinine analyzer (Creatinine Analyzer 2, Beckman Instrument, Inc., Fullerton Calif., USA). Total urine proteins were measured by a spectrophotometric assay using bicinchoninic acid reagent (Pierce; Rockford, Ill.) and a modification of Lowry method. Lowry, O. H., et al., J. Biol. Chem. 193: 265 (1951), the disclosure of which is incorporated herein by reference.
(§1) After baseline metabolic parameters were measured, animals were randomly assigned to receive subcutaneous saline (3 ml/kg; Control group, n=9) or puromycin aminonucleoside (PAN) (75 mg/kg; drug-induced nephrotoxic animals, n=26). PAN is a drug widely used to produce drug-induced nephrotoxicity in laboratory animals. Grond, J., et al., Contributions to Nephrology 60:83 (1988), the disclosure of which is incorporated herein by reference. Injections of PAN (20 mg/kg) were repeated after 2, 4, 8 and 10 weeks of treatment. Three hours after the initial injections, control animals were implanted with osmotic minipumps (model 2ML4, Alza, Palo Alto, Calif.) containing vehicle (polyethylene glycol 400, 2.5 μl/hour), whereas PAN-treated animals were implanted with osmotic minipumps containing either vehicle (PAN group, n=13) or 2-hydroxyestradiol (10 μg/kg/hour, PAN+2OHE group, n=13). Assignment to the PAN and PAN+2OHE groups was random. Six animals in the PAN group and 2 animals in the PAN+2OHE group died during the treatment, and these animals were not used in the final data analysis.

PAN-nephropathic rats [2] = test: Acute measurements of renal hemodynamics and excretory function at 12 weeks; settings: 12 weeks of treatment
Procedure: as §1
At 12 weeks into treatment, animals were anesthetized with pentobarbital (45 mg/kg i.p.) and instrumented for measurements of renal hemodynamics and excretory function. Two polyethylene (PE)-50 catheters were inserted into left jugular vein for delivery of supplemental anesthetics and saline infusion (50 μl/min), respectively. Another PE-50 catheter was inserted into left carotid artery and connected to a blood-pressure analyzer (Micro-Med., Inc., Louisville, Ky.) for continuous measurement of blood pressure and heart rate. A PE-10 catheter was inserted into the left ureter to facilitate collection of urine, and a flow probe (Model 1RB; Transonic Systems, Inc., Ithaca, N.Y.) was placed on the left renal artery for determination of renal blood flow, which was used to calculate renal vascular resistance. Next, an infusion of ^14C-inulin (0.035 μCi/20 μl saline/min) was initiated and after 60 minutes, two 30-minute clearance periods were conducted. A mid-point blood sample (300 μl) was collected and plasma and urine ^14C-inulin radioactivity was measured. Renal clearance of ^14C-inulin was calculated as an estimate of glomerular filtration rate.

[3] = tested on: proliferating cell nuclear antigen (PCNA); test: Glomerular immunohistochemical staining for PCNA, quantitative image analysis; settings: 12 weeks of treatment, kidney sections
Procedure: (§2) Animals were killed by an overdose of anesthetic and kidneys were removed and weighed. One kidney was fixed in 10% formalin buffer and the second kidney was quick-frozen in liquid nitrogen and stored at −70° C. Kidney tissue samples were sectioned and processed into paraffin blocks for light microscopy. For labeling of collagen IV, renal cortical segments (5 μm) were incubated overnight at 4° C. with rabbit anti-mouse collagen IV antibody (dilution 1/500 ) obtained from Chemicon International Inc. (Temecula, Calif.). A primary monoclonal mouse antibody ( 1/200 dilution; Dako Corporation, Carpenteria, Calif.) was used to label proliferating cell nuclear antigen (PCNA). […] Nonspecific staining was assessed by replacing the primary antibody with phosphate buffered saline. […] Immunochemical staining for collagen IV and PCNA quantitatively was done with a SAMBA 4000 image analyzer (Image Products International, Chantilly, Va.) using specialized computer software (Immuno-Analysis, version 4.1, Microsoft, Richmond, Wash.), a color video camera and a Compaq computer. […] Ten high power fields (×400) were assessed for staining density or positively marked cells for ED-1. […] Staining intensity of positive areas was also assessed (mean optical density) and a mean quick score was then calculated (mean optical density×labeling index).

ED1 positive cells = test: Immunohistochemical staining for ED1 positive cells (macrophage infiltration) in glomeruli and interstitium; settings: 12 weeks of treatment, kidney sections
Procedure: as §2

PAN-nephropathic rats [4] = test: Plasma testosterone radioimmunoassay; settings: 12 weeks of treatment, male rats
Procedure: An aliquot of mid-point blood sample drawn during the first clearance period was used for testosterone measurements. Plasma testosterone levels were determined by radioimmunoassay using a commercial kit provided by ICN Biomedicals, Inc. (Costa Mesa, Calif.) according to the protocol of the manufacturer.

PAN-treated rats = test: Mortality during 12-week treatment of PAN-treated rats; settings: n=13 per group
Procedure: as §1

collagen IV = test: Glomerular immunohistochemical staining for collagen IV, quantitative image analysis; settings: 12 weeks of treatment, kidney sections
Procedure: as §2

CN(C)c1ncnc2c1ncn2[C@@H]1O[C@H](CO)[C@@H](N)[C@H]1O [PAN, puromycin aminonucleoside]
Body Weight (PAN-nephropathic rats [1]; 0 wks of treatment (baseline)): 293 ± 4 g | Creatinine Excretion (PAN-nephropathic rats [1]; 0 wks of treatment (baseline)): 14.9 ± 2.5 mg/day | FE - K+ (fractional excretion of potassium) (PAN-nephropathic rats [1]; 0 wks of treatment (baseline)): 10.5 ± 0.7% | FE - Na+ (fractional excretion of sodium) (PAN-nephropathic rats [1]; 0 wks of treatment (baseline)): 0.13 ± 0.01% | Fluid Intake (PAN-nephropathic rats [1]; 0 wks of treatment (baseline)): 5.33 ± 0.37 mL/h/kg | Food Intake (PAN-nephropathic rats [1]; 0 wks of treatment (baseline)): 75 ± 2 g/kg/day | Plasma Cholesterol (PAN-nephropathic rats [1]; 0 wks of treatment (baseline)): 53.6 ± 2.3 mg/dL | Potassium Excretion (PAN-nephropathic rats [1]; 0 wks of treatment (baseline)): 10.9 ± 0.72 mEq/day/kg | Sodium Excretion (PAN-nephropathic rats [1]; 0 wks of treatment (baseline)): 4.48 ± 0.95 mEq/day/kg | Urine Volume (PAN-nephropathic rats [1]; 0 wks of treatment (baseline)): 1.78 ± 0.275 mL/h/kg | Body Weight (PAN-nephropathic rats [1]; 3 wks of treatment): 313 ± 1 g | Creatinine Excretion (PAN-nephropathic rats [1]; 3 wks of treatment): 11.1 ± 1.1 mg/day | FE - K+ (fractional excretion of potassium) (PAN-nephropathic rats [1]; 3 wks of treatment): 27.3 ± 3.7 % | FE - Na+ (fractional excretion of sodium) (PAN-nephropathic rats [1]; 3 wks of treatment): 0.37 ± 0.06% | Fluid Intake (PAN-nephropathic rats [1]; 3 wks of treatment): 7.58 ± 0.667 mL/h/kg | Food Intake (PAN-nephropathic rats [1]; 3 wks of treatment): 74 ± 4 g/kg/day | Plasma Cholesterol (PAN-nephropathic rats [1]; 3 wks of treatment): 353 ± 39.4 mg/dL | Potassium Excretion (PAN-nephropathic rats [1]; 3 wks of treatment): 10.7 ± 0.82 mEq/day/kg | Sodium Excretion (PAN-nephropathic rats [1]; 3 wks of treatment): 3.80 ± 0.58 mEq/day/kg | Urine Volume (PAN-nephropathic rats [1]; 3 wks of treatment): 4.192 ± 0.462 mL/h/kg | Body Weight (PAN-nephropathic rats [1]; 6 wks of treatment): 337 ± 15 g | Creatinine Excretion (PAN-nephropathic rats [1]; 6 wks of treatment): 8.8 ± 0.9 mg/day | FE - K+ (fractional excretion of potassium) (PAN-nephropathic rats [1]; 6 wks of treatment): 30.1 ± 4.6 % | FE - Na+ (fractional excretion of sodium) (PAN-nephropathic rats [1]; 6 wks of treatment): 0.71 ± 0.13 % | Fluid Intake (PAN-nephropathic rats [1]; 6 wks of treatment): 6.92 ± 0.542 mL/h/kg | Food Intake (PAN-nephropathic rats [1]; 6 wks of treatment): 69 ± 3 g/kg/day | Plasma Cholesterol (PAN-nephropathic rats [1]; 6 wks of treatment): 283.5 ± 39.5 mg/dL | Potassium Excretion (PAN-nephropathic rats [1]; 6 wks of treatment): 8.39 ± 0.61 mEq/day/kg | Sodium Excretion (PAN-nephropathic rats [1]; 6 wks of treatment): 3.92 ± 0.38 mEq/day/kg | Urine Volume (PAN-nephropathic rats [1]; 6 wks of treatment): 3.9 ± 0.512 mL/h/kg | Body Weight (PAN-nephropathic rats [1]; 11 wks of treatment): 382 ± 27 g | Creatinine Excretion (PAN-nephropathic rats [1]; 11 wks of treatment): 18.7 ± 3.0 mg/day | FE - K+ (fractional excretion of potassium) (PAN-nephropathic rats [1]; 11 wks of treatment): 47.1 ± 7.7 % | FE - Na+ (fractional excretion of sodium) (PAN-nephropathic rats [1]; 11 wks of treatment): 1.18 ± 0.35 % | Fluid Intake (PAN-nephropathic rats [1]; 11 wks of treatment): 6.62 ± 0.708 mL/h/kg | Food Intake (PAN-nephropathic rats [1]; 11 wks of treatment): 53 ± 5 g/kg/day | Plasma Cholesterol (PAN-nephropathic rats [1]; 11 wks of treatment): 349.6 ± 43.0 mg/dL | Potassium Excretion (PAN-nephropathic rats [1]; 11 wks of treatment): 9.63 ± 1.60 mEq/day/kg | Sodium Excretion (PAN-nephropathic rats [1]; 11 wks of treatment): 4.18 ± 0.58 mEq/day/kg | Urine Volume (PAN-nephropathic rats [1]; 11 wks of treatment): 4.712 ± 0.692 mL/h/kg | Creatinine clearance (in words, FIGS. 1B and 1C) (PAN-nephropathic rats [1]; chronic treatment): reduced creatinine clearance | Plasma creatinine levels (in words, FIG. 1A) (PAN-nephropathic rats [1]; chronic treatment): increased plasma creatinine levels | Urinary protein excretion (UPE; in words, FIG. 2A) (PAN-nephropathic rats [1]; chronic treatment): induced severe proteinuria | Blood pressure (in words) (PAN-nephropathic rats [2]): increased blood pressure | GFR, inulin clearance (in words) (PAN-nephropathic rats [2]): decreased renal blood flow, renal plasma flow, hematocrit and glomerular filtration rate | Hematocrit (PAN-nephropathic rats [2]): 27 ± 2% | Left Kidney (PAN-nephropathic rats [2]): 2.10 ± 0.13 g | Glomerular Filtration Rate (PAN-nephropathic rats [2]; 14C-inulin clearance): 0.21 ± 0.07 ml/min/g kidney | Body Weight (PAN-nephropathic rats [2]; acute experiment): 368 ± 15 | Mean Blood Pressure (PAN-nephropathic rats [2]; anesthetized): 153.0 ± 6.1 mm Hg | Renal Blood Flow (PAN-nephropathic rats [2]; anesthetized): 2.73 ± 0.24 ml/min/g kidney | Renal Plasma Flow (PAN-nephropathic rats [2]; anesthetized): 2.00 ± 0.19 ml/min/g kidney | Renal Vascular Resistance (PAN-nephropathic rats [2]; anesthetized): 63.6 ± 7.6 mm Hg/ml/min/g kid | Urine Volume (PAN-nephropathic rats [2]; anesthetized): 4.43 ± 0.85 μl/min/g kidney | Labeling index of glomerular immunoreactive PCNA (in words, FIG. 3) [3]: markedly expanded | Number of ED1 positive cells in glomeruli and interstitium (in words, FIG. 4) (ED1 positive cells): several-fold increase in the number of ED1 positive cells | Plasma testosterone levels (PAN-nephropathic rats [4]): 0.92 ± 0.27 ng/mL | Animals died during the treatment (PAN-treated rats): Six | Glomerular collagen IV, labeling index (in words, FIGS. 5 and 6) (collagen IV): significant increase in glomerular collagen IV content
